Measured values reported in US10077236B2, “Azacyclic constrained analogs of FTY720” (The Regents of the University of California, priority 2013, dated 2018).
Read-outs that look alike come from different tables or passages of the source.

Legend:
Blin-1 Ph- ALL cell line = assay: Cell viability assay, Blin-1; assay type: cell-based, human; conditions: 72 h, vital dye exclusion and flow cytometry, read-out: Mean IC50 (+/- SEM) in cell viability assay, Blin-1 Ph- ALL
From the text: (§1) Leukemia cell assays: Effects of chemical changes on ability to kill cells as observed in cell viability assays using the BCR-ABL positive human acute lymphoblastic leukemia (ALL) cell line, Sup-B15 are described. Assays using the Sup-B15 cell line were designed to determine efficacy of azacyclic constrained small molecule analogs of FTY720 in killing leukemia cells. Analogs were generated using the synthesis methods mentioned above. Sup-B15 cells were maintained at 2-3 million/mL in RPMI 1640 (by Mediatech™) supplemented with 10% fetal calf serum (by Sigma-Aldrich™), 10 mM Hepes (by Mediatech™), 55 μM β-mercaptoethanol (by Sigma-Aldrich™), 2 mM L-glutamine (by Mediatech™), and antibiotics. BV173, Nalm-6, and Blin-1 were maintained at 1-2 million/mL and CCRF-CEM at less than 500,000/mL in the same medium. BMp190 cells were created by transducing murine bone marrow cells with pMIC-p190 which expresses the p190 isoform of BCR-Abl and human CD4 from an IRES; these cells were kept at 1-2 million/mL in RPMI supplemented as above.
(§2) Flow cytometry: Much of the biological activity presented is shown through flow cytometry data. […] Here, IC50 flow cytometry assays were used. In them, viability was determined at 72 hours by vital dye exclusion [propium iodide or DAPI (4′,6-diamindino-2-phenylindole)]. To measure nutrient receptor expression following exposure to FTY720 and azacyclic constrained analogs of FTY720, surface 4F2hc expression was measured after 3 hours of drug treatment by staining 150,000 cells with phycoerythrin-conjugated mouse anti-human CD98 (by BD Biosciences™). Analysis was restricted to viable cells.
(§3) All samples for the disclosed sets of data were analyzed on a BD LSR II flow cytometer and data analyzed with FlowJo™ software (by Treestar™). IC50's were calculated and statistical tests were performed using GraphPad Prism™.

sphingosine kinase 2 = biological target: T1, sphingosine kinase 2 (Mus musculus, UniProt Q9JIA7); assay: Phosphorylation by sphingosine kinase 2 in cells; assay type: cell-based
T1 construct: endogenous in cells
T1 sequence (Q9JIA7 1-617): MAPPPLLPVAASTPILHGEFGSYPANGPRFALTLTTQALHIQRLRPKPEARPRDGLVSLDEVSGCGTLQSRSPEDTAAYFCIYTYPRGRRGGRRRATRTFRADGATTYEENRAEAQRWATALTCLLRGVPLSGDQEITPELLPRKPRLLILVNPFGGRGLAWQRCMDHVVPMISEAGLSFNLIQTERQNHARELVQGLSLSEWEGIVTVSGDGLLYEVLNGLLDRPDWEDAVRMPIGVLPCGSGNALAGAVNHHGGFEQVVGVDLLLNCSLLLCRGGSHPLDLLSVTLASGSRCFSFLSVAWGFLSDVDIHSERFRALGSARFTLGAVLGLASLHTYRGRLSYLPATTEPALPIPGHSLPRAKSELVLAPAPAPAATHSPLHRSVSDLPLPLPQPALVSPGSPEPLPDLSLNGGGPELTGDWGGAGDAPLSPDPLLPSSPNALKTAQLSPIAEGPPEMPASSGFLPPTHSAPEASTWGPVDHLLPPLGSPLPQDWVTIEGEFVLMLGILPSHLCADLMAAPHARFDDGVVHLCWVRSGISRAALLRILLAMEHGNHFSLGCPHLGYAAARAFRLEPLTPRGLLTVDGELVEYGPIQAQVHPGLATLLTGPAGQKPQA
Procedure: The importance of phosphorylation in the activity of compound 6 was then examined. In this study MEF knockout lines that show the same differential sensitivity to compound 6 relative to its enantiomers as leukemia cells were used (FIG. 10h). […] A phosphate and a non-phosphorylatable analog of compound 6 were then tested.

Nalm-6 Ph- ALL cell line = assay: Cell viability assay, Nalm-6; assay type: cell-based, human; conditions: 72 h, vital dye exclusion and flow cytometry, read-out: Mean IC50 (+/- SEM) in cell viability assay, Nalm-6 Ph- ALL
From the text: as §1, §2, §3

BV173 Ph+ ALL cell line = assay: Cell viability assay, BV173; assay type: cell-based, human; conditions: 72 h, vital dye exclusion and flow cytometry, read-out: Mean IC50 (+/- SEM) in cell viability assay, BV173 Ph+ ALL
From the text: as §1, §2, §3

[1] = test system: PC3 prostate cancer cell line; assay: Cell viability assay, PC3; assay type: cell-based, human; conditions: 72 h, vital dye exclusion and flow cytometry, read-out: Mean IC50 (+/- SEM) in cell viability assay, PC3 prostate
Procedure: as §2, with “In them, viability was determined at 72 hours by vital dye exclusion [propium iodide or DAPI (4′,6-diamindino-2-phenylindole)].” left out, “cells. All samples for the disclosed sets of data were analyzed on a BD LSR II flow cytometer and data analyzed with FlowJo™ software (by Treestar™). IC50's were calculated and statistical tests were performed using GraphPad Prism™.” for “cells.”

[2] = test system: DU145 prostate cancer cell line; assay: Cell viability assay, DU145; assay type: cell-based, human; conditions: 72 h, vital dye exclusion and flow cytometry, read-out: Mean IC50 (+/- SEM) in cell viability assay, DU145 prostate
Procedure: as §2, with “In them, viability was determined at 72 hours by vital dye exclusion [propium iodide or DAPI (4′,6-diamindino-2-phenylindole)].” left out, “cells. All samples for the disclosed sets of data were analyzed on a BD LSR II flow cytometer and data analyzed with FlowJo™ software (by Treestar™). IC50's were calculated and statistical tests were performed using GraphPad Prism™.” for “cells.”

[3] = test system: CCRF-CEM Ph- ALL cell line; assay: Cell viability assay, CCRF-CEM; assay type: cell-based, human; conditions: 72 h, vital dye exclusion and flow cytometry, read-out: Mean IC50 (+/- SEM) in cell viability assay, CCRF-CEM Ph- ALL
From the text: as §1, §2, §3

[4] = test system: Sup-B15 BCR-ABL positive human acute lymphoblastic leukemia (ALL) cell line; assay: Cell viability assay, Sup-B15 leukemia cells (flow cytometry, vital dye exclusion); assay type: cell-based; conditions: for IC50: 72 h, vital dye exclusion and flow cytometry, read-out: Mean IC50 (+/- SEM) in cell viability assay, SupB15 Ph+ ALL; for ability to kill leukemia cells, potency compared in words: Sup-B15 cell viability assays
From the text: as §1, §2, §3

[5] = test system: BMp190 cells (murine bone marrow transduced with BCR-Abl p190); assay: Cell viability assay, BCR-Abl p190-expressing murine bone marrow (BM-p190); assay type: cell-based; conditions: 72 h, vital dye exclusion and flow cytometry, read-out: Mean IC50 (+/- SEM) in cell viability assay, BM-p190
From the text: as §1, §2, §3

[6] = Mouse heart rate by telemetry; assay type: in vivo; conditions: telemetry for 24 h after administration of anti-cancer dose
From the text: (§4) As previously discussed, FTY720 itself cannot be used in cancer patients because phosphorylation of FTY720 by SphKs makes FTY720-P, which acts at S1P receptors to cause bradycardia and immunosuppression (on-target effect for primary use).

circulating lymphocytes = assay: Lymphocyte sequestration (circulating lymphocytes); assay type: in vivo, mouse; conditions: number of circulating lymphocytes 12 h after dosage
From the text: as §4

SMILES: CCCCCCCCc1ccc(CO[C@H]2CN[C@H](CO)C2)cc1.Cl [Compound 5]
- IC50 (Blin-1 Ph- ALL cell line): 7.5 ± 0.1 µM
- phosphorylation by sphingosine kinase 2 in cells (sphingosine kinase 2): phosphorylated by sphingosine kinase 2 in cells
- IC50 (Nalm-6 Ph- ALL cell line): 15 ± 2.1 µM
- IC50 (BV173 Ph+ ALL cell line): 10.4 ± 0.7 µM
- IC50 [1]: 14.3 ± 1.2 µM
- IC50 [2]: 10.8 ± 0.4 µM
- IC50 [3]: 11 ± 1.3 µM
- IC50 [4]: 7.7 ± 0.8 µM
- IC50 [5]: 5.7 ± 1.1 µM

SMILES: CCCCCCCCc1ccc(CO[C@H]2CN[C@H](C)C2)cc1.Cl [Compound 13]
- ability to kill leukemia cells, potency compared in words [4]: no detectable effect on the potency

SMILES: CCCCCCCCc1ccc(CO[C@@H]2CN[C@@H](C)C2)cc1.Cl [Compound 14]
- ability to kill leukemia cells, potency compared in words [4]: decreased the activity

SMILES: CCCCCCCCc1ccc(CO[C@@H]2CN[C@@H](COC)C2)cc1.Cl [Compound 15, (2R,4S)-2-(methoxymethyl)-4-((4-octylbenzyl)oxy)-pyrrolidine hydrochloride salt]
- ability to kill leukemia cells, potency compared in words ([4]; hydrochloride salt): reduced the potency

SMILES: CCCCCCCCc1ccc(COC2CCNC2)cc1.Cl (centres unmarked) [Compound 16]
- ability to kill leukemia cells, potency compared in words [4]: only a marginal effect on activity

SMILES: CCCCCCCCc1ccc(CCC(N)(CO)CO)cc1.Cl [FTY720, 2-Amino-2-[2-(4-octylphenyl)ethyl]propane 1,3-diol hydrochloride]
- IC50 (Blin-1 Ph- ALL cell line; Homo sapiens): 5.5 ± 0.1 µM
- IC50 (Nalm-6 Ph- ALL cell line; Homo sapiens, NALM-6): 9.6 ± 1.9 µM
- IC50 (BV173 Ph+ ALL cell line; Homo sapiens, BV-173): 6.3 ± 0.4 µM
- effect on heart rate [6]: dramatic drop in heart rate
- IC50 ([1]; Homo sapiens): 9.8 ± 0.9 µM
- IC50 ([2]; Homo sapiens, DU-145): 6.5 ± 0.9 µM
- IC50 ([3]; Homo sapiens, CCRF-CEM): 6.8 ± 0.3 µM
- lymphocyte sequestration / immunosuppression (circulating lymphocytes): causes lymphocyte sequestration
- IC50 ([4]; Homo sapiens, SUP-B15): 6.8 ± 0.7 µM
- IC50 ([5]; Mus musculus): 3.3 ± 0.2 µM
